Data: ChEMBL document CHEMBL1201861, “Genomics of Drug Sensitity in Cancer screening data, Wellcome Trust Sanger Institute”

Columns and labels:
TI-73 = experiment: cells; type: functional, cell-based, Homo sapiens; conditions: Homo sapiens, TI-73;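 note: cell viability assay measuring how much compounds suppress growth of the cultured cell line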
Description: SANGER: Inhibition of human TI-73 cell growth in a cell viability assay.

ECC10 = experiment: cells; type: functional, cell-based, Homo sapiens; conditions: Homo sapiens, ECC10;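 note: growth inhibition of ECC10 cells, read out by a cell viability assay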
Description: SANGER: Inhibition of human ECC10 cell growth in a cell viability assay.

NBsusSR = experiment: cells; type: functional, cell-based, Homo sapiens; conditions: Homo sapiens, NBsusSR;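 note: growth inhibition of the human cell line, read out with a cell viability assay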
Description: SANGER: Inhibition of human NBsusSR cell growth in a cell viability assay.

RH-18 = experiment: cells; type: functional, cell-based, Homo sapiens; conditions: Homo sapiens, Rh18;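 note: growth inhibition of human RH-18 cells, read out with a cell viability assay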
Description: SANGER: Inhibition of human RH-18 cell growth in a cell viability assay.

BALL-1 = experiment: cells; type: functional, cell-based, Homo sapiens; conditions: Homo sapiens, BALL-1;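 note: growth inhibition of BALL-1 cells, read out with a cell viability assay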
Description: SANGER: Inhibition of human BALL-1 cell growth in a cell viability assay.

CHP-134 = experiment: SANGER: Inhibition of human CHP-134 cell growth in a cell viability assay.; type: functional, cell-based
RT-4 = experiment: SANGER: Inhibition of human RT4 cell growth in a cell viability assay.; type: functional, cell-based; conditions: Homo sapiens, RT-4
SK-MG-1 = experiment: SANGER: Inhibition of human SK-MG-1 cell growth in a cell viability assay.; type: functional, cell-based
NCI-H1975 = experiment: cells; type: functional, cell-based, Homo sapiens; conditions: Homo sapiens, NCI-H1975
Description: SANGER: Inhibition of human NCI-H1975 cell growth in a cell viability assay.

SK-MEL-5 = experiment: SANGER: Inhibition of human SK-MEL-5 cell growth in a cell viability assay.; type: functional, cell-based
TT = experiment: cells; type: functional, cell-based, Homo sapiens; conditions: Homo sapiens, TT
Description: SANGER: Inhibition of human TT cell growth in a cell viability assay.

Caov-4 = experiment: cells; type: functional, cell-based; conditions: Homo sapiens
Description: SANGER: Inhibition of human Caov-4 cell growth in a cell viability assay.

IPC-298 = experiment: SANGER: Inhibition of human IPC-298 cell growth in a cell viability assay.; type: functional, cell-based; conditions: Homo sapiens, IPC-298
CCF-STTG1 = experiment: cells; type: functional, cell-based, Homo sapiens; conditions: Homo sapiens, CCF-STTG1;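 note: growth inhibition of human CCF-STTG1 cells, determined with a cell viability read-out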
Description: SANGER: Inhibition of human CCF-STTG1 cell growth in a cell viability assay.

DV-90 = experiment: cells; type: functional, cell-based, Homo sapiens; conditions: Homo sapiens, DV-90;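 note: Read-out is a viability assay, with IC50 reflecting the drop in DV-90 cell growth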
Description: SANGER: Inhibition of human DV-90 cell growth in a cell viability assay.

ECC12 = experiment: cells; type: functional, cell-based; conditions: Homo sapiens
Description: SANGER: Inhibition of human ECC12 cell growth in a cell viability assay.

SK-CO-1 = experiment: cells; type: functional, cell-based, Homo sapiens; conditions: Homo sapiens, SK-CO-1;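 note: growth inhibition of SK-CO-1 cells, determined by a viability readout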
Description: SANGER: Inhibition of human SK-CO-1 cell growth in a cell viability assay.

Calu-1 = experiment: SANGER: Inhibition of human Calu-1 cell growth in a cell viability assay.; type: functional, cell-based; conditions: Homo sapiens, Calu-1
MFE-296 = experiment: SANGER: Inhibition of human MFE-296 cell growth in a cell viability assay.; type: functional, cell-based; conditions: Homo sapiens, MFE-296
EFE-184 = experiment: cells; type: functional, cell-based, Homo sapiens; conditions: Homo sapiens, EFE-184
Description: SANGER: Inhibition of human EFE-184 cell growth in a cell viability assay.

HCC1143 = experiment: cells; type: functional, cell-based, Homo sapiens; conditions: Homo sapiens, HCC1143;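 note: growth inhibition of human HCC1143 cells, read out with a cell viability assay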
Description: SANGER: Inhibition of human HCC1143 cell growth in a cell viability assay.

PLC-PRF-5 = experiment: cells; type: functional, cell-based, Homo sapiens; conditions: Homo sapiens, PLC-PRF-5;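 note: growth inhibition of human PLC-PRF-5 cells, read out with a viability assay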
Description: SANGER: Inhibition of human PLC-PRF-5 cell growth in a cell viability assay.

SNG-M = experiment: cells; type: functional, cell-based, Homo sapiens; conditions: Homo sapiens, SNG-M
Description: SANGER: Inhibition of human SNG-M cell growth in a cell viability assay.

NCI-H128 = experiment: SANGER: Inhibition of human NCI-H128 cell growth in a cell viability assay.; type: functional, cell-based
EW-12 = experiment: SANGER: Inhibition of human EW-12 cell growth in a cell viability assay.; type: functional, cell-based
NCI-H378 = experiment: SANGER: Inhibition of human NCI-H378 cell growth in a cell viability assay.; type: functional, cell-based
SKM-1 = experiment: SANGER: Inhibition of human SKM-1 cell growth in a cell viability assay.; type: functional, cell-based
TC-YIK = experiment: SANGER: Inhibition of human TC-YIK cell growth in a cell viability assay.; type: functional, cell-based

| Structure (SMILES) | IC50 (TI-73) [nM] | IC50 (ECC10) [nM] | IC50 (NBsusSR) [nM] | IC50 (RH-18) [nM] | IC50 (BALL-1) [nM] | IC50 (CHP-134) [nM] | also measured |
| --- | --- | --- | --- | --- | --- | --- | --- |
| COc1cc2c(Nc3ccc(NC(=O)c4ccccc4)cc3)ncnc2cc1OCCCN1CCOCC1 | > 4000 | 1630 | 914 | > 4000 | > 4000 | 1230 | – |
| CC(C)c1ccccc1Cc1cc(C(=O)Nc2ccc(S(=O)(=O)c3ccccc3C(C)(C)C)cc2)c(O)c(O)c1O | – | – | – | 1070 | – | – | IC50 (RT-4): 10600 nM; IC50 (SK-MG-1): 2580 nM; IC50 (NCI-H1975): 1380 nM; IC50 (SK-MEL-5): 69.2 nM |
| N#Cc1c(O)c2c(-c3ccc(-c4ccccc4O)cc3)csc2[nH]c1=O | – | – | – | – | – | – | IC50 (TT): > 1020 nM; IC50 (Caov-4): > 1020 nM; IC50 (IPC-298): > 1020 nM; IC50 (CCF-STTG1): > 1020 nM; IC50 (DV-90): > 1020 nM; IC50 (ECC12): > 1020 nM; IC50 (SK-CO-1): > 1020 nM; IC50 (RT-4): > 1020 nM; IC50 (Calu-1): > 1020 nM; IC50 (MFE-296): > 1020 nM; IC50 (EFE-184): > 1020 nM; IC50 (HCC1143): > 1020 nM; IC50 (PLC-PRF-5): > 1020 nM; IC50 (SNG-M): > 1020 nM |
| CC(C)CCN1c2nc(Nc3cc(F)c(O)c(F)c3)ncc2N(C)C(=O)C1C (stereo not given) | > 5000 | 701 | 1830 | > 5000 | > 5000 | 3490 | – |
| COc1cc2ncn(-c3cc(OCc4ccccc4S(C)(=O)=O)c(C#N)s3)c2cc1OC [GSK-319347A] | – | – | – | – | – | – | IC50 (NCI-H128): > 5000 nM; IC50 (EW-12): > 5000 nM; IC50 (NCI-H378): > 5000 nM; IC50 (SKM-1): > 5000 nM; IC50 (ECC12): > 5000 nM; IC50 (TC-YIK): > 5000 nM |
| CC1(C)CNc2cc(NC(=O)c3cccnc3NCc3ccncc3)ccc21 [MOTESANIB] | > 2000 | > 2000 | > 2000 | > 2000 | > 2000 | > 2000 | – |
| CCN(CC)CCCCNc1ncc2cc(-c3cc(OC)cc(OC)c3)c(NC(=O)NC(C)(C)C)nc2n1 [PD-173074] | > 2000 | 339 | > 2000 | > 2000 | > 2000 | > 2000 | – |
| Cn1cnc2c(F)c(Nc3ccc(Br)cc3Cl)c(C(=O)NOCCO)cc21 [SELUMETINIB] | > 4000 | > 4000 | > 4000 | > 4000 | > 4000 | > 4000 | – |
